One may read the inhibition as how much of the control response was suppressed. Higher therefore signals a response far below the control. In general, IC50 refers to the point on the concentration scale where inhibition reaches its midpoint. Lower therefore signals inhibition by little substance.

In ChEMBL document CHEMBL1142415, “5-tert-butyl-N-pyrazol-4-yl-4,5,6,7-tetrahydrobenzo[d]isoxazole-3-carboxamide derivatives as novel potent inhibitors of Mycobacterium tuberculosis pantothenate synthetase: initiating a quest for new antitubercular drugs” (J Med Chem, 2008) one finds inhibition and IC50 data, which are given here for 18 molecules.

SMILES strings stand for the structures.

For experiment [1], the target named is T1, Pantothenate synthetase (Mycobacterium tuberculosis) (UniProt P9WIL5).
T1 sequence (whole entry): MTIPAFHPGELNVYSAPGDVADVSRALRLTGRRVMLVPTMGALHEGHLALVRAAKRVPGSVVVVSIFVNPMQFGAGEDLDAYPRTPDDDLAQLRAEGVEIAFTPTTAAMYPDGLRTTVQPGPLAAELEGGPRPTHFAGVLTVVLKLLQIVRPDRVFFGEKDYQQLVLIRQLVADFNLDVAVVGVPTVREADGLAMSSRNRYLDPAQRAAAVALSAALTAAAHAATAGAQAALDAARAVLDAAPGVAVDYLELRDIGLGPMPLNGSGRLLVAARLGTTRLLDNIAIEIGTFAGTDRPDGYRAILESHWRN
Put plainly: Inhibition of Mycobacterium tuberculosis pantothenate synthetase at 100 uM.

The next experiment concerns the target T2, Pantothenate synthetase (Mycobacterium tuberculosis, UniProt P9WIL5).
T2 sequence (P9WIL5 whole entry): T1 sequence (whole entry)
In words: Inhibition of Mycobacterium tuberculosis pantothenate synthetase.

For experiment [2], the system named is Mycobacterium tuberculosis. In words: Antibacterial activity against Mycobacterium tuberculosis at 128 uM by MABA assay. It counts as functional. (In general: Alamar Blue is a resazurin reagent that responds to reducing activity.)
Experiment [3] deals with Mycobacterium tuberculosis. Put plainly: Antibacterial activity against Mycobacterium tuberculosis at 128 uM by LORA assay. It counts as functional.

`CC(C)(C)C1CCc2onc(C(=O)Nc3cn[nH]c3)c2C1` (centres undefined) yielded an inhibition in experiment [1] of 43%. The molecule further came in with an IC50 on Pantothenate synthetase of 61000 nM. The results for the inhibition at 128 µM in experiment [2] and in experiment [3] were 60% and 4%, respectively.

`O=C(Nc1cnn(Cc2ccc(Cl)cc2Cl)c1)c1noc2c1CCCC2` came in with an inhibition in experiment [1] of 18%. The inhibition at 128 µM in experiment [2] amounted to 70%; in experiment [3] it was 53%.

In experiment [1], `COc1ccc(Cc2noc(NC(=O)c3noc4c3CC(C(C)(C)C)CC4)c2C(N)=O)cc1` (centres undefined) registered an inhibition of 79%. Besides, on Pantothenate synthetase, the 50% inhibitory concentration (IC50) came out at 7130 nM. Besides, the inhibition at 128 µM in experiment [2] and in experiment [3] was 14% throughout.

For the molecule `CC(C)(C)C1CCc2onc(C(=O)Nc3cnn(Cc4ccc5ccccc5c4)c3)c2C1` (centres undefined), the inhibition in experiment [1] was found to be 97%. In addition, on Pantothenate synthetase, the half-inhibitory concentration (IC50) turned out to be 90 nM. For the same molecule, in experiment [2], the inhibition at 128 µM was found to be 43%.

In experiment [1], `CC(C)(C)C1CCc2onc(C(=O)Nc3cnn(Cc4ccc(C(=O)O)cc4)c3)c2C1` (centres undefined) came in with an inhibition of 99%. The molecule further registered an IC50 against Pantothenate synthetase of 460 nM. Moreover, the inhibition at 128 µM is 41% in experiment [2] and 2% in experiment [3].

As for `CC(C)(C)C1CCc2onc(C(=O)Nc3cnn(Cc4ccc(C(=O)NCc5ccccc5)cc4)c3)c2C1` (centres undefined), in experiment [1], the inhibition was 82%. For the same molecule, half-maximal inhibition at Pantothenate synthetase (IC50) required 210 nM. Moreover, the inhibition at 128 µM in experiment [2] worked out at 54%; in experiment [3], 46%.

On to `CC(C)(C)C1CCc2onc(C(=O)Nc3cnn(Cc4ccccc4I)c3)c2C1` (centres undefined), for which, in experiment [1], the inhibition is 84%. Further, at Pantothenate synthetase, inhibition was half-maximal at 160 nM (IC50). For the same molecule, the inhibition at 128 µM is 70% in experiment [2] and 12% in experiment [3].

Regarding `CC(C)(C)C1CCc2onc(C(=O)Nc3cnn(Cc4ccc(C(=O)NCCc5ccccc5)cc4)c3)c2C1` (centres undefined), in experiment [1], the inhibition worked out at 78%. This molecule showed an IC50 on Pantothenate synthetase of 140 nM. Besides, the inhibition at 128 µM in experiment [2] worked out at 19%; in experiment [3], 11%.

Turning to `CC(C)(C)C1CCc2onc(C(=O)Nc3cnn(Cc4ccc(F)cc4)c3)c2C1` (centres undefined), the inhibition in experiment [1] is 98%. At Pantothenate synthetase, this molecule showed an IC50 of 150 nM. Also, the inhibition at 128 µM in experiment [2] and in experiment [3] was 0% throughout.

Take `Cc1ccccc1Cn1cc(NC(=O)c2noc3c2CC(C(C)(C)C)CC3)cn1` (centres undefined): the inhibition in experiment [1] was determined as 89%. At Pantothenate synthetase, this molecule yielded a 50% inhibitory concentration (IC50) of 120 nM. Further, the inhibition at 128 µM was determined as 46% in experiment [2] and 15% in experiment [3].

With `CC(C)(C)C1CCc2onc(C(=O)Nc3cnn(Cc4ccccc4)c3)c2C1` (centres undefined), the inhibition in experiment [1] came out at 100%. It took 97 nM to reach half-maximal inhibition at Pantothenate synthetase (IC50). Besides, the inhibition at 128 µM is 84% in experiment [2] and 62% in experiment [3].

Molecule `CC(C)(C)C1CCc2onc(C(=O)Nc3cnn(C(=O)c4c(Cl)cc(Cl)cc4Cl)c3)c2C1` (centres undefined) returned an inhibition in experiment [1] of 17%. Further, the inhibition at 128 µM in experiment [2] was determined as 34%; in experiment [3], 26%.

Turning to `CC(C)(C)C1CCc2onc(C(=O)Nc3cnn(Cc4ccccc4Br)c3)c2C1` (centres undefined), the inhibition in experiment [1] was found to be 94%. The molecule also yielded an IC50 at Pantothenate synthetase of 140 nM. The inhibition at 128 µM in experiment [2] was found to be 73%; in experiment [3], 24%.

In turn, `CC(C)(C)C1CCc2onc(C(=O)Nc3cnn(Cc4ccc(Cl)cc4)c3)c2C1` (centres undefined) had an inhibition in experiment [1] of 98%. At Pantothenate synthetase, this molecule showed an IC50 of 140 nM.

As for `CC(C)(C)C1CCc2onc(C(=O)Nc3cnn(Cc4ccc(F)cc4F)c3)c2C1` (centres undefined), the inhibition in experiment [1] was determined as 100%. Moreover, at Pantothenate synthetase, the IC50 was 130 nM. In addition, the inhibition at 128 µM in experiment [2] is 56%; in experiment [3], 47%.

`COC(=O)c1ccc(Cn2cc(NC(=O)c3noc4c3CC(C(C)(C)C)CC4)cn2)cc1` (centres undefined) displayed an inhibition in experiment [1] of 100%. Besides, the IC50 at Pantothenate synthetase amounted to 160 nM. The results for the inhibition at 128 µM in experiment [2] and in experiment [3] were 48% and 0%, respectively.

`CC(C)(C)OC(=O)c1ccc(Cn2cc(NC(=O)c3noc4c3CC(C(C)(C)C)CC4)cn2)cc1` (centres undefined): the inhibition in experiment [1] is 79%. In addition, the IC50 at Pantothenate synthetase came to 250 nM.

In experiment [1], `CC(C)(C)C1CCc2onc(C(=O)O)c2C1` (centres undefined) displayed an inhibition of 12%. The inhibition at 128 µM in experiment [2] is 5%; in experiment [3], 11%.
